This is an account of results in PMC10599993, “The PTPN2/PTPN1 inhibitor ABBV-CLS-484 unleashes potent anti-tumour immunity” (Nature, 2023).

The structures appear in SMILES notation.

The target of one assay is T1, PTPN2 (Homo sapiens, UniProt P17706).
T1 construct: full-length recombinant
Put plainly: mobility shift enzyme assay with labelled insulin receptor phosphopeptide. It counts as biochemical.

The next assay addresses T2, PTPN1 (Homo sapiens, UniProt P18031).
T2 construct: full-length recombinant
The assay is described as above. The class given is biochemical.

T1 sequence (P17706 whole entry): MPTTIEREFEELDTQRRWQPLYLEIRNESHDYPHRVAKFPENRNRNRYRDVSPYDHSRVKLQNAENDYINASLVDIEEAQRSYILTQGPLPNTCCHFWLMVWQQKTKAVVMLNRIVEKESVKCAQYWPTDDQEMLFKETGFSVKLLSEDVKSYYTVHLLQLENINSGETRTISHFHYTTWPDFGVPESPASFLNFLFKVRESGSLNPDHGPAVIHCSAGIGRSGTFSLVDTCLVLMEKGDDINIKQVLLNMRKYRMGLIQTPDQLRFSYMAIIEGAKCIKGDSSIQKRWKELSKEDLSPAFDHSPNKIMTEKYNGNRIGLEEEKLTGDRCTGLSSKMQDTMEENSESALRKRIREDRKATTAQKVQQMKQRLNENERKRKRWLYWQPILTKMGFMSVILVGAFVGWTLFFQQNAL
T2 sequence (P18031 whole entry): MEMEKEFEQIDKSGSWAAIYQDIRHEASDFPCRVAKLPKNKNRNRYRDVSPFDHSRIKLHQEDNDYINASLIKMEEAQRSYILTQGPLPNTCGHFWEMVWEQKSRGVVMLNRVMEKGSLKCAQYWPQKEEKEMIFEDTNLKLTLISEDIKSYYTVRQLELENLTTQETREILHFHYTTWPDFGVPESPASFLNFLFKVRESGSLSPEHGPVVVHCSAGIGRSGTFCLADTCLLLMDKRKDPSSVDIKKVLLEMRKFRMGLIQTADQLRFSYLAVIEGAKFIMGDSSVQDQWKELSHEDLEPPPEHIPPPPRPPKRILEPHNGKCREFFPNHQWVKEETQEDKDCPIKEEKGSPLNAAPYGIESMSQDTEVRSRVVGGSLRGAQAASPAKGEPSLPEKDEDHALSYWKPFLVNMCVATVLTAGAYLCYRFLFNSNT

`O=C1CN(c2c(O)cc3ccc(NCC4CC4)cc3c2F)S(=O)(=O)N1` [A-650]: the IC50 at PTPN2 stood at 3.9 nM; at PTPN1, 2.8 nM.

As usually defined, the IC50 is the concentration that inhibits the measured activity by half.
